“Also recorded” adds a separate entry of the source. Where two headings read alike, the source gives them in different places.
How the values were obtained:
[1] = WHO; cited from earlier work
guinea pigs = conditions: p.o. (Schwetz et al. 1973); cited from earlier work
rats [2] = conditions: calculated from the literature, cited from earlier work
hamsters = hamsters (Eisler 1986); cited from earlier work
rats [3] = conditions: adult cycling rats, 10 μg/kg (Li et al. 1995a); cited from earlier work
rats [4] = conditions: cited from earlier work
[5] = human data; cited from earlier work
humans = conditions: cited from earlier work
[6] = Half-lives after intravenous dosage in rats; conditions: rat, in vivo
Description: (§1) Studies on a limited number of animal have been conducted to determine the approximate half-life of TCPT.

[7] = tested on: Dunkin-Hartley guinea pigs; assay: Altering the regulation level for bodyweight in guinea pigs; format: in vivo, guinea pig
Protocol: In the present invention, guinea pigs were dosed for 9 consecutive days with 2.5, 5, 10 and 20 mg/kg/day TCPT, respectively. The observations presented here were made during another study which was not designed for comparative body weight analysis. […] In contrast to studies on TCDD, weight gain resumed 1-2 days after cessation, probably due to TCPT's shorter half-life and therefore more rapid elimination.

CYP 1A1 = assay: In vitro ethoxyresorufin-O-deethylase (EROD) study in rat hepatoma cells; format: cell-based
Protocol: The induction of CYP 1A1 has been quantitatively measured in an cell-line study. The choice of EROD as an in vitro study was made based on its established procedure and speed. […] Its metabolic context is both, a strength and a weakness of the EROD assay. The greatest advantage of cell-based assays is the detection of the actual gene expression as compared to the study of interaction with DREs (Seidel et al. 2000).
The EROD-specific activity of TCPT declined over time, with its maximum at 24 h out of measurements after 24, 48 and 72 h. This indicates a comparatively rapid metabilization of TCPT by rat hepatoma cells.

[8] = tested on: Dunkin-Hartley guinea pigs; assay: Effects on ovulation in guinea pigs; format: in vivo, guinea pig
Description: In the present invention, guinea pigs were chosen for this study for two reasons. First, they represent the species that is the most sensitive to TCDD. […] Dosing with gelatin capsules can be performed in this species without anesthesia, which is not possible in rats. This is an important factor, since anesthetics generally influence ovulation.
The guinea pigs were followed for at least two regular consecutive cycles (about 16 days each) before commencing with dosing and also after the administration of TCPT was terminated. Their cycles were tracked by observation of vaginal opening and vaginal smears. The day of ovulation, day 1, was defined as a leucocytic smear following a cornified smear. The animals were dosed for 9 consecutive days starting on day 9 of a highly regular normal cycle. This way, the dosing period overlapped with the relevant time-span for ovulation and regulation of the cycle length (Terranova & Greenwald 1981). The animals received dose rates of 2.5, 5, 10 and 20 mg/kg TCPT per day. One animal was pair-fed to an animal dosed with 20 mg/kg/day TCPT.

[9] = Solubility and stability observations; format: physicochemical
[10] = Acute toxicity, daily p.o. doses of TCPT in guinea pigs; conditions: female, Dunkin-Hartley, guinea pig, in vivo, po
Protocol: (§4) In this example, dose-range finding studies were performed with a small number of animals to accommodate the limited availability of TCPT.
(§5) Six adult male Dunkin-Hartley guinea pigs were given daily p.o. doses of TCPT. Due to its insolubility, TCPT was administered as a solid in size 9 gelatin capsules and dosing devices purchased from Torpack, Inc. (Fairfield, N.J.).
(§6) The experimental design of daily dosing accounted for the short half-life known from clinically used phenothiazines and the results of prior unpublished studies with 1,2,3,7,8,9-hexachlorophenothiazine.
(§7) This example first looked at daily p.o. administration to guinea pigs. Eleven guinea pigs received multiple doses of TCPT, with dosages ranging from 2.5 to 100 mg/kg/day.

[11] = tested on: Dunkin-Hartley guinea pigs; assay: as above
Protocol: as §4, §5, §6, §7

[12] = Half-lives after intravenous dosage in guinea pigs; conditions: guinea pig, in vivo, 10 mg/kg, two guinea pigs, i.v. 10 mg/kg
Description: as §1

guinea pig = assay: Single intravenous administration of TCPT in guinea pigs; format: in vivo; conditions: single i.v. 10 mg/kg in acetone (0.5 ml/kg)
Protocol: During ovulation studies (see Example 4 below), an adult female was lost after having been dosed with 10 mg/kg/day for 9 consecutive days; the animal died on day 13.
In this example, the toxicity of TCPT was compared between each species. […] On the other hand, a female rat receiving i.v. 10 mg/kg was sedated within 30 minutes.

rats [13] = assay: Observed interaction with anesthetics (pentobarbital)
Sprague-Dawley rats = assay: Acute i.v. toxicity of TCPT in rats; format: in vivo, rat
Protocol: (§2) Animals dosed with 10 mg/kg became unconscious for 30 min, whereas in the 5 mg/kg dose group, the rats lost consciousness for 3 min only, likely representing the effects of acetone in this case.
(§3) Due to the unexpectedly rapid onset of death, no more detailed observations, e.g. on the heart rate, could be made.

[14] = Acute i.v. toxicity of TCPT in rats; format: in vivo, rat; conditions: female, Sprague-Dawley, rat, in vivo, iv; rats, i.v.; read-out: dose for the acute lethal toxicity (referred to as i.v. LD50)
Protocol: as §2, §3

[15] = 20 mg/kg/day, 9 consecutive days
[16] = peroral solid TCPT 30 min prior to pentobarbital (55 mg/kg)

Clc1cc2c(cc1Cl)Oc1c(cc(Cl)c(Cl)c1Cl)O2 [PeCDD, 1,2,3,7,8-pentachlorodibenzo-p-dioxin]
TEF-value [1]: 1

Clc1cc2c(cc1Cl)Oc1cc(Cl)c(Cl)cc1O2 [TCDD, 2,3,7,8-Tetrachlorodibenzo-p-dioxin]
LD50 (guinea pigs): 0.0021 mg/kg | body burden below which weight gain resumed (rats [2]; 3 weeks after dosing): Below 5 μg/kg | body burden at which feed intake started rising again (rats [2]; after non-lethal dose of 15 μg/kg, after 11 days): 6.6 to 8 µg/kg | LD50 (hamsters): 1157−5051 μg/kg | TEF-value [1]: 1 | effect on cycle and ovulation (rats [3]): prolonged diestrus stage | LD50 (rats [4]; Han Wistar rats (Pohjanvirta et al.)): > 3 mg/kg | LD50 (rats [4]; Long-Evans rats (Pohjanvirta et al.)): 0.01 mg/kg | inter-strain difference in LD50 (rats [4]; between Long-Evans and Han Wistar rats): ~300 fold | LD50 (rats [4]; female rats (Schwetz et al. 1973)): 0.045 mg/kg | LD50 (rats [4]; male rats (Schwetz et al. 1973)): 0.022 mg/kg | i.v. LD50 (rats [4]; rats, i.v. (Schwetz et al. 1973)): 0.025 mg/kg | absorption [5]: > 86% | concentration below which most individuals do not show signs (humans; humans (Williams & Wilkins 1992)): 11,000 ppt | dose corresponding to 11,000 ppt (humans; humans (Young 1984)): about 100 μg/kg | concentration at which chloracne symptoms may occur (humans; susceptible individuals, based on serum lipid content): 800 ppt

Clc1cc2c(cc1Cl)Sc1cc(Cl)c(Cl)cc1N2 [TCPT, 2,3,7,8-tetrachlorophenothiazine]
half-life ([6]; 5 mg/kg, two rats, i.v. 5 mg/kg, read-out: half-life, distribution phase (converted)): 0.82 h | half-life ([6]; 5 mg/kg, two rats, i.v. 5 mg/kg, read-out: half-life, elimination phase (converted)): 5.42 h | half-life ([6]; 10 mg/kg, one rat, i.v. 10 mg/kg, read-out: half-life, distribution phase (converted)): 0.47 h | half-life ([6]; 10 mg/kg, one rat, i.v. 10 mg/kg, read-out: half-life, elimination phase (converted)): 2.25 h | set-point of bodyweight ([7]; all survivors): reduced set-point of bodyweight | bodyweight during the dosing period ([7]; guinea pigs, 2.5, 5, 10 and 20 mg/kg/day for 9 consecutive days): decrease in bodyweight | time until weight gain resumed after cessation ([7]; guinea pigs, after 9 days of dosing): 1 to 2 days | reduction of set-point for bodyweight ([7]; treated animal (20 mg/kg/day, 9 days), FIG. 2): 66 grams | potency compared with TCDD (acute toxicity in animals and in vitro EROD-specific activity) (CYP 1A1): three orders of magnitude less potent | time of maximum EROD-specific activity (CYP 1A1; measurements after 24, 48 and 72 h, declined over time): 24 h | efficacy, of the efficacy of TCDD, in vitro EROD-bioassay (CYP 1A1; rat hepatoma cells): 77% | effect on cycle/ovulation ([8]; 10 mg/kg/day, 9 consecutive days): shortened period of vaginal opening | effect on ovulation [8, 15]: inhibited ovulation | vaginal opening [8, 15]: irregular vaginal opening | direct or endocrine effect on the ovaries ([8]; guinea pigs, conclusion of the experiment): no direct or endocrine effect on the ovaries | effect on cycle/ovulation ([8]; two lowest dose groups (2.5, 5 mg/kg per day), 9 consecutive days from day 9 of cycle): no effect | stability in acetone [9]: decomposes in acetone | stability in acetone ([9]; listed as KWF3): degraded when kept in acetone for longer periods of time | solubility ([9]; any solvent): insolubility; also recorded: low solubility | LD50 [10]: 25 to 50 mg/kg | day of death ([11]; adult female guinea pig, 10 mg/kg/day p.o. for 9 consecutive days): 13 days | Result ([11]; adult male guinea pig, animal 1, p.o. 25 mg/kg/d for 18 days): survived | Result ([11]; adult male guinea pig, animal 2, p.o. l00 mg/kg/d for 8 days): died | Result ([11]; adult male guinea pig, animal 3, p.o. 50, 10, 25, 50 mg/kg/d (dose-range finding) for 17 days): died | Result ([11]; adult male guinea pigs, animals 4-6, p.o. 27.5, 44, 50, 57, 67, 75 mg/kg/d for 13 days): survived | body weight ([11]; eleven guinea pigs, multiple p.o. doses 2.5 to 100 mg/kg/day): body weight loss | p.o. LD50 of TCPT relative to reported p.o. LD50 of TCDD ([11]; guinea pigs): roughly 10,000 times | autopsy finding ([11]; guinea pigs that died): loss of all adipose tissue | days of dosing until death ([11]; guinea pigs, p.o. 25-50 mg/kg/day): 8 to 11 days | dose for the acute lethal toxicity ([11]; guinea pigs, p.o., daily dosing): 25 to 50 mg/kg/day | difference in acute toxicity to TCDD ([11]; oral administration): 10^−4 fold | peroral potency compared with TCDD (wasting syndrome) ([11]; p.o. dosing): four orders of magnitude lower | tolerance ([11]; survivors of daily p.o. dosing): development of tolerance | half-life ([12]; read-out: half-life, distribution phase (converted)): 0.42 h | half-life ([12]; read-out: half-life, elimination phase (converted)): 2.71 h | observable effects (guinea pig): no observable effect | mortality in anesthetized animals (rats [13]; i.v. 3 mg/kg, pentobarbital anesthesia): one animal dying out of three | effect in anesthetized animals (rats [13]; i.v. 5 mg/kg in acetone (1 ml/kg), pentobarbital 55 mg/kg): immediate respiratory arrest | fatalities (rats [13]; [16]): no fatalities | shortening of the onset of anesthesia (rats [13]; [16]): about 50% | breathing (rats [13]; rats, p.o. administration of various doses during pentobarbital-induced anesthesia): breathed very shallow and in long intervals | sedation (Sprague-Dawley rats; female rat, i.v. 10 mg/kg): ≤ 30 min | duration of lost consciousness (Sprague-Dawley rats; female rats, i.v. 5 mg/kg in acetone (1 ml/kg), likely effect of acetone): 3 min | duration of unconsciousness (Sprague-Dawley rats; female rats, i.v. 10 mg/kg in acetone (1 ml/kg)): 30 min | lethality (Sprague-Dawley rats; female rats, i.v. 30 mg/kg in acetone (1 ml/kg), 30 mg/kg): died within five seconds; also recorded: dropped dead within five seconds; also recorded: lethal dose | i.v. LD50 of TCPT relative to reported i.v. LD50 of TCDD (Sprague-Dawley rats; rats): roughly 1,000 times | LD50 [14]: 10 to 30 mg/kg
